In US20210255193A1, “LYSINE REACTIVE PROBES AND USES THEREOF” (The Scripps Research Institute, priority 2017, published 2021):

Columns and labels:
Test in all cases: competitive isoTOP-ABPP
Assay type in all cases: binding
[1] = molecular target: T1, RINT1 RAD50-interacting protein 1 (Homo sapiens, UniProt Q6NUQ1); details: for isoTOP-ABPP reactivity ratio at lysine Q6NUQ1_K771 / isoTOP-ABPP ratio (R) at liganded lysine Q6NUQ1_K771: 50 uM, in vitro; for isoTOP-ABPP reactivity ratio at lysine Q6NUQ1_K771: 231 sol; for isoTOP-ABPP ratio (R) at liganded lysine Q6NUQ1_K771: sol, 231; for isoTOP-ABPP ratio, lysine Q6NUQ1_K771: 50 uM_231_sol_in vitro
T1 construct: isoTOP-ABPP experiments performed in cell lysates (in vitro); endogenous in cells; host or cells: soluble proteome of human cancer cell lines (MDA-MB-231; Ramos and Jurkat also prepared)
T1 sequence (Q6NUQ1 whole entry): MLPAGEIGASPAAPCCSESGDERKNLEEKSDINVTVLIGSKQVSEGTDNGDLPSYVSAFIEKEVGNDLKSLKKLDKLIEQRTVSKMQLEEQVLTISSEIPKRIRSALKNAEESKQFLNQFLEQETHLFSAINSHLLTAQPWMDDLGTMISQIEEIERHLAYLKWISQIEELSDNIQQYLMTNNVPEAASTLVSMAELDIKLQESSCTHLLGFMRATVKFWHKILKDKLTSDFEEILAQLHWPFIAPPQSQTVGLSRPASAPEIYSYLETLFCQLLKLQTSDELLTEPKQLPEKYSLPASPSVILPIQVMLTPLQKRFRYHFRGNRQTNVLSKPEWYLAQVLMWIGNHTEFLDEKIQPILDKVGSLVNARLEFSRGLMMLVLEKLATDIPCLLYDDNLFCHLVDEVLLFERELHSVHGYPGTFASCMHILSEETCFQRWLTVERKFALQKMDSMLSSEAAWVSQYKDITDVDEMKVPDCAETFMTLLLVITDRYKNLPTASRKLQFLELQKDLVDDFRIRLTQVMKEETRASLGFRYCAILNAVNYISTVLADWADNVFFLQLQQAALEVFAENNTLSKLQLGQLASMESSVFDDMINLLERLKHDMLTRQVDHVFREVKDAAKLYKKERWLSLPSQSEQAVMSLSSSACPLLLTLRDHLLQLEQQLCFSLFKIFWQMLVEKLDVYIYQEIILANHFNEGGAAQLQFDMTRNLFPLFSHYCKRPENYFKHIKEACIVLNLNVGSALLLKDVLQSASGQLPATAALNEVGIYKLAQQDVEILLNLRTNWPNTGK
Method in brief: (§1)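 Here, isoTOP-ABPP measures loss of STP-alkyne labeling at individual lysines after fragment exposure in lysate. Activated esters are dosed at 50 μM, guanidinylating agents at 100 μM; the probe follows at 0.1 mM for 1 h. R ≥4 marks a liganded lysine.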

[2] = molecular target: T2, ENOPH1 Enolase-phosphatase E1 (Homo sapiens, UniProt Q9UHY7); details: for isoTOP-ABPP reactivity ratio at lysine Q9UHY7_K111: 231 sol; for isoTOP-ABPP ratio, lysine Q9UHY7_K111: 50 uM_231_sol_in vitro
T2 construct: endogenous in cells; host or cells: MDA-MB-231 (soluble fraction of lysate)
T2 sequence (Q9UHY7 whole entry): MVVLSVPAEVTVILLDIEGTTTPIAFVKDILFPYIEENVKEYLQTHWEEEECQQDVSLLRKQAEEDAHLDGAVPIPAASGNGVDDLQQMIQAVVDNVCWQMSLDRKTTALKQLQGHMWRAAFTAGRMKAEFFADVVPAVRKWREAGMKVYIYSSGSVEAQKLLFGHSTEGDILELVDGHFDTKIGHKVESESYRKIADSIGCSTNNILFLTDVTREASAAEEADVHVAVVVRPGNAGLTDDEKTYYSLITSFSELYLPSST
Method in brief: as §1

[3] = molecular target: T3, CUL2 Cullin-2 (Homo sapiens, UniProt Q13617); details: for isoTOP-ABPP reactivity ratio at lysine Q13617_K489: 231 sol; for isoTOP-ABPP ratio, lysine Q13617_K489: 50 uM_231_sol_in vitro
T3 construct: isoTOP-ABPP experiments performed in cell lysates (in vitro); endogenous in cells; host or cells: soluble proteome of human cancer cell lines (MDA-MB-231, Ramos, Jurkat)
T3 sequence (Q13617 whole entry): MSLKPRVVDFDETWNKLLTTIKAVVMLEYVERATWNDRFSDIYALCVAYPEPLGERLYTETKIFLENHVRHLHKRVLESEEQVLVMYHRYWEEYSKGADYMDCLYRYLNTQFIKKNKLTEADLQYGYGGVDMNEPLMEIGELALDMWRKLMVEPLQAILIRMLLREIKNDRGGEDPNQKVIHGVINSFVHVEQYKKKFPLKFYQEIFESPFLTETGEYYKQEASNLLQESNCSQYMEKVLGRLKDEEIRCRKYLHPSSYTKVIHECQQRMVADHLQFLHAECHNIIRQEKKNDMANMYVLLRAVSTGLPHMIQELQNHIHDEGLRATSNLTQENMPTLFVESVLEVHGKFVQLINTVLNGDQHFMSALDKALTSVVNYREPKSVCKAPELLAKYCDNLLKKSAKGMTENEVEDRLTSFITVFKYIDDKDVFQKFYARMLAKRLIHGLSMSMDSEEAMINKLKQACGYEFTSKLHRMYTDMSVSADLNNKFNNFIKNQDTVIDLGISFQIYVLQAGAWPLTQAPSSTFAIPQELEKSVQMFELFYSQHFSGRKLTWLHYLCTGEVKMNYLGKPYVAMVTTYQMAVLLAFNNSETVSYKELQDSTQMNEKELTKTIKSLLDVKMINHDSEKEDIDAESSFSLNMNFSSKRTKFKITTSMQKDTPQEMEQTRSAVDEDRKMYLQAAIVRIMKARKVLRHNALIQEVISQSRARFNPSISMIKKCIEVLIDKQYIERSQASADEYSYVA
Method in brief: as §1

[4] = molecular target: T4, G6PD Glucose-6-phosphate 1-dehydrogenase (Homo sapiens, UniProt P11413); details: for isoTOP-ABPP reactivity ratio at lysine P11413_K171 / isoTOP-ABPP ratio (R) at liganded lysine P11413_K171: 50 uM, in vitro; for isoTOP-ABPP reactivity ratio at lysine P11413_K171: 231 sol; for isoTOP-ABPP ratio (R) at liganded lysine P11413_K171: sol, 231; for isoTOP-ABPP ratio, lysine P11413_K171: 50 uM_231_sol_in vitro
T4 construct: isoTOP-ABPP experiments performed in cell lysates (in vitro); endogenous in cells; host or cells: MDA-MB-231 soluble lysate
T4 sequence (P11413 whole entry): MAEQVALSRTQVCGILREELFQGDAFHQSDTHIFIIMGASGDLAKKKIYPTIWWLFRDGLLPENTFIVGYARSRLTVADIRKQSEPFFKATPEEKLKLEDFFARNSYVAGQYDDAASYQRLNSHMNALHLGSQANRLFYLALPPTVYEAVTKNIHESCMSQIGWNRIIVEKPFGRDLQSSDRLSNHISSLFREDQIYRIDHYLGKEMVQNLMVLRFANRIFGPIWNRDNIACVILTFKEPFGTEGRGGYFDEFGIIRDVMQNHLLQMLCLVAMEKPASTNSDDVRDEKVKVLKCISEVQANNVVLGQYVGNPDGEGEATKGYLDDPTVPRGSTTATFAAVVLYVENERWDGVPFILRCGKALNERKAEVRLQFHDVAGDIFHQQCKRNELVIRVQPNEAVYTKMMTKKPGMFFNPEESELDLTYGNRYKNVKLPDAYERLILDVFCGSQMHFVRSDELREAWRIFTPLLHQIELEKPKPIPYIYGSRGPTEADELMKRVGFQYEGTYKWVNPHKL
Method in brief: as §1

[5] = molecular target: T5, GLOD4 Glyoxalase domain-containing protein 4 (Homo sapiens, UniProt Q9HC38); details: 50 uM, in vitro; for isoTOP-ABPP reactivity ratio at lysine Q9HC38_K305: 231 sol
T5 construct: endogenous in cells; host or cells: MDA-MB-231 (soluble fraction of lysate)
T5 sequence (Q9HC38 1-313): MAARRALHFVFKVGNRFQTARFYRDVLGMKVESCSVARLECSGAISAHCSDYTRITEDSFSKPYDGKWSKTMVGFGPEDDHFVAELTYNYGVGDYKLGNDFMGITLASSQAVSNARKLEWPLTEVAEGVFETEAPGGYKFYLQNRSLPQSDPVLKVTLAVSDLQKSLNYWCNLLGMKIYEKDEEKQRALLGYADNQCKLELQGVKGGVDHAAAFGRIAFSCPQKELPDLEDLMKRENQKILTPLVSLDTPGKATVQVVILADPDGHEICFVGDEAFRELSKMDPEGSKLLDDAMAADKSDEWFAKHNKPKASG
Method in brief: as §1

[6] = molecular target: T6, RQCD1 Cell differentiation protein RCD1 homolog (Homo sapiens, UniProt Q92600); details: for isoTOP-ABPP reactivity ratio at lysine Q92600_K230 / isoTOP-ABPP ratio (R) at liganded lysine Q92600_K230: 50 uM, in vitro; for isoTOP-ABPP reactivity ratio at lysine Q92600_K230: 231 sol; for isoTOP-ABPP ratio (R) at liganded lysine Q92600_K230: sol, 231; for isoTOP-ABPP ratio, lysine Q92600_K230: 50 uM_231_sol_in vitro
T6 construct: isoTOP-ABPP experiments performed in cell lysates (in vitro); endogenous in cells; host or cells: soluble proteome of human cancer cell lines (MDA-MB-231; Ramos and Jurkat also prepared)
T6 sequence (Q92600 whole entry): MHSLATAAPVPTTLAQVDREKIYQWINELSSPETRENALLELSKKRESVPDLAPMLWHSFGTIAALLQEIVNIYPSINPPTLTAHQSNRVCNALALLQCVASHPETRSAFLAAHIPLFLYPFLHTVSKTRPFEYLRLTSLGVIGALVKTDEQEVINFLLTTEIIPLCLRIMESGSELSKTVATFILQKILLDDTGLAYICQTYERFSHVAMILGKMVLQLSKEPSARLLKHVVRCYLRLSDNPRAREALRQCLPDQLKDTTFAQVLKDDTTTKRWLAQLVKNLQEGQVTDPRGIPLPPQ
Method in brief: as §1

[7] = molecular target: T7, HNRNPK Heterogeneous nuclear ribonucleoprotein K (Homo sapiens, UniProt P61978)
T7 construct: isoTOP-ABPP experiments performed in cell lysates (in vitro); endogenous in cells; host or cells: soluble proteome of human cancer cell lines (MDA-MB-231, Ramos, Jurkat)
Method in brief: as §1

Compound: CCn1cc(C(=O)Oc2c(F)c(F)c(F)c(F)c2F)c(=O)c2ccc(C)nc21 [fragment 28, Pentafluorophenyl 1-ethyl-7-methyl-4-oxo-1,4-dihydro-1,8-naphthyridine-3-carboxylate]
- isoTOP-ABPP reactivity ratio at lysine Q6NUQ1_K771 [1]: 0.8
- isoTOP-ABPP reactivity ratio at lysine Q9UHY7_K111 ([2]; 50 uM, in vitro): 1.0
- isoTOP-ABPP reactivity ratio at lysine Q13617_K489 ([3]; 50 uM, in vitro): 1.0
- isoTOP-ABPP reactivity ratio at lysine P11413_K171 [4]: 0.9
- isoTOP-ABPP reactivity ratio at lysine Q9HC38_K305 [5]: 1.0

Compound: O=C(Oc1ccc([N+](=O)[O-])cc1[N+](=O)[O-])c1cc(C(F)(F)F)cc(C(F)(F)F)c1 [fragment 31, 2,4-Dinitrophenyl 3,5-bis(trifluoromethyl)benzoate]
- isoTOP-ABPP reactivity ratio at lysine Q6NUQ1_K771 [1]: 20.0
- isoTOP-ABPP reactivity ratio at lysine Q92600_K230 [6]: 1.0
- isoTOP-ABPP reactivity ratio at lysine Q13617_K489 ([3]; 50 uM, in vitro): 1.1
- isoTOP-ABPP reactivity ratio at lysine P11413_K171 [4]: 1.1
- isoTOP-ABPP reactivity ratio at lysine Q9HC38_K305 [5]: 0.5

Compound: Cn1cc(CC(=O)Oc2ccc([N+](=O)[O-])cc2[N+](=O)[O-])c2ccccc21 [fragment 32, 2,4-Dinitrophenyl 2-(1-methyl-1H-indol-3-yl)acetate]
- isoTOP-ABPP reactivity ratio at lysine Q6NUQ1_K771 [1]: 1.2
- isoTOP-ABPP reactivity ratio at lysine Q92600_K230 [6]: 10.2
- isoTOP-ABPP reactivity ratio at lysine P61978_K405 ([7]; 50 uM, 231 sol, in vitro): 0.9
- isoTOP-ABPP reactivity ratio at lysine Q9UHY7_K111 ([2]; 50 uM, in vitro): 1.3
- isoTOP-ABPP reactivity ratio at lysine Q13617_K489 ([3]; 50 uM, in vitro): 1.1
- isoTOP-ABPP reactivity ratio at lysine P11413_K171 [4]: 0.9

Compound: COc1cc(CCC(=O)Oc2ccc([N+](=O)[O-])cc2[N+](=O)[O-])cc(OC)c1OC [fragment 33, 2,4-Dinitrophenyl 3-(3,4,5-trimethoxyphenyl)propanoate]
- isoTOP-ABPP reactivity ratio at lysine Q6NUQ1_K771 [1]: 1.0
- isoTOP-ABPP reactivity ratio at lysine Q92600_K230 [6]: 2.5
- isoTOP-ABPP reactivity ratio at lysine Q9UHY7_K111 ([2]; 50 uM, in vitro): 0.9
- isoTOP-ABPP reactivity ratio at lysine Q13617_K489 ([3]; 50 uM, in vitro): 1.2
- isoTOP-ABPP reactivity ratio at lysine P11413_K171 [4]: 16.3
- isoTOP-ABPP reactivity ratio at lysine Q9HC38_K305 [5]: 0.4

Compound: O=C(CCc1coc2cc(F)ccc2c1=O)Oc1ccc([N+](=O)[O-])cc1[N+](=O)[O-] [fragment 36, 2,4-Dinitrophenyl 3-(7-fluoro-4-oxo-4H-chromen-3-yl)propanoate]
- isoTOP-ABPP ratio (R) at liganded lysine Q6NUQ1_K771 [1]: 0.9
- isoTOP-ABPP ratio (R) at liganded lysine Q92600_K230 [6]: 2.5
- isoTOP-ABPP ratio (R) at liganded lysine Q9UHY7_K111 ([2]; 50 uM, in vitro, sol, 231): 0.9
- isoTOP-ABPP ratio (R) at liganded lysine Q13617_K489 ([3]; 50 uM, in vitro, sol, 231): 1.0
- isoTOP-ABPP ratio (R) at liganded lysine P11413_K171 [4]: 1.0

Compound: O=C(Oc1ccc([N+](=O)[O-])cc1[N+](=O)[O-])C(c1ccccc1)(c1ccccc1)c1ccccc1 [fragment 42, 2,4-Dinitrophenyl 2,2,2-triphenylacetate]
- isoTOP-ABPP ratio (R) at liganded lysine Q6NUQ1_K771 [1]: 1.1
- isoTOP-ABPP ratio (R) at liganded lysine Q92600_K230 [6]: 0.8
- isoTOP-ABPP ratio (R) at liganded lysine P11413_K171 [4]: 0.9
- isoTOP-ABPP ratio (R) at liganded lysine Q9HC38_K305 ([5]; sol, 231): 0.9

Compound: O=C(ON1C(=O)CCC1=O)c1cc(C(F)(F)F)cc(C(F)(F)F)c1 [fragment 46, 3,5-Bis(trifluoromethyl)benzoic acid NHS ester]
- isoTOP-ABPP ratio, lysine Q6NUQ1_K771 [1]: 20.0
- isoTOP-ABPP ratio, lysine Q92600_K230 [6]: 1.1
- isoTOP-ABPP ratio, lysine P61978_K405 ([7]; 50 uM_231_sol_in vitro): 1.1
- isoTOP-ABPP ratio, lysine Q9UHY7_K111 [2]: 1.1
- isoTOP-ABPP ratio, lysine Q13617_K489 [3]: 1.0
- isoTOP-ABPP ratio, lysine P11413_K171 [4]: 0.9

Compound: O=C(Oc1c(F)c(F)c(C(F)(F)F)c(F)c1F)c1cc(C(F)(F)F)cc(C(F)(F)F)c1 [fragment 47, 2,3,5,6-Tetrafluoro-4-(trifluoromethyl)phenyl 3,5-bis(trifluoromethyl)benzoate]
- isoTOP-ABPP ratio, lysine Q6NUQ1_K771 [1]: 1.2
- isoTOP-ABPP ratio, lysine Q92600_K230 [6]: 0.8
- isoTOP-ABPP ratio, lysine Q9UHY7_K111 [2]: 7.8
- isoTOP-ABPP ratio, lysine Q13617_K489 [3]: 0.8
- isoTOP-ABPP ratio, lysine P11413_K171 [4]: 1.0

Compound: O=C(Oc1c(F)c(F)cc(F)c1F)c1cc(C(F)(F)F)cc(C(F)(F)F)c1 [fragment 48, 2,3,5,6-Tetrafluorophenyl 3,5-bis(trifluoromethyl)benzoate]
- isoTOP-ABPP ratio, lysine Q6NUQ1_K771 [1]: 4.8
- isoTOP-ABPP ratio, lysine Q9UHY7_K111 [2]: 0.9
- isoTOP-ABPP ratio, lysine Q13617_K489 [3]: 0.8
- isoTOP-ABPP ratio, lysine P11413_K171 [4]: 0.9
